In the supplement of paper PMC11208160:

Experiments:
[1] = recombinant barcode read abundance after kanamycin selection (control-corrected) (log10(CPM+1)); higher = more efficient recombination; sequences stand for … in AGTGCAGAGAAAATCGGCCAGTTTTCTCTGCCTGCAGTCCGCATGCCGT…AGATTTATGCAGCGGACTGCCTTTCTCCCAAAGTGATAAACCGGACAGTATCATGGACCGGTTTTCCCGGTAATCCGTATTTGCAAGGTTGGTTTCACT; site = the 11-nt target
Procedure: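 Pooled E. coli target-specificity screen for the IS621 bridge recombinase. Each library plasmid pairs an 11-nt target (CT core) with a bridge RNA whose target-binding loop (9-nt LTG + 4-nt RTG) is reprogrammed; the rest of the 177-nt WT IS621 bridge RNA scaffold is fixed. The plasmid is co-electroporated with a WT donor plasmid; recombinase is induced with 0.1 mM IPTG and recombinants are selected on kanamycin. Recombinant barcodes are sequenced, converted to CPM, averaged over two biological replicates and corrected by the unselected control CPM. Molecule = full bridge RNA written as DNA: LTG = specificity nt 1-9, RTG = reverse complement of specificity nt 8-11, in the WT scaffold.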

[2] = recombinant UMI read abundance after kanamycin selection (control-corrected) (log10(CPM+1)); higher = more efficient recombination; extreme values may be limits of the assay; sequences stand for … in AGTGCAGAGAAAATCGGCCAGTTTTCTCTGCCTGCAGTCCGCATGCCGTGGGACCCCTTGGGTTCTAACCTGTTGCCTAGATTTATGCAGCGGACTGCCTTTCTCCCAAAGTGATAAACCGG…AGGTTGGTTTCACT; site = the 11-nt donor
In short: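 Values are reported as log10(CPM+1), obtained by converting sequencing counts to CPM, averaging replicates and scaling by control-derived factors. The counts came from recombinant UMIs amplified by PCR across the donor–target junction. These UMIs came from a pooled Escherichia coli screen of donor and donor-binding-loop pairs for the IS621 bridge recombinase, plated with IPTG (0.07 mM) plus kanamycin or left unselected, in two replicates each.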
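For recombinant UMI read abundance after kanamycin selection (control-corrected) in this document: IS621 bridge recombinase in Escherichia coli cells against a fixed T5 target plasmid.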
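For recombinant barcode read abundance after kanamycin selection (control-corrected) in this document: IS621 recombinase and bridge RNA in Escherichia coli cells.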

Sequence	recombinant barcode read abundance (log10) [1]	recombinant UMI read abundance (log10) [2]
AAACCACCTTGGGTTCTAACCTGTTGCCT (site AAACCACCTAG)	1.49	
AAACCACCTTGGGTTCTAACCTGTTGCCT (site ACACCACCTAG)	0.257	
AAACCACCTTGGGTTCTAACCTGTTGCCT (site AGACCACCTAG)	0.276	
AAACCACCTTGGGTTCTAACCTGTTGCCT (site ATACCACCTAG)	0.861	
AAATCCTCTTGGGTTCTAACCTGTTGCCT (site AAATCCTCTAG)	1.04	
AAATCCTCTTGGGTTCTAACCTGTTGCCT (site CAATCCTCTAG)	0.475	
AAATCCTCTTGGGTTCTAACCTGTTGCCT (site GAATCCTCTAG)	0.085	
AAATCCTCTTGGGTTCTAACCTGTTGCCT (site TAATCCTCTAG)	0.409	
AAATGACCTTGGGTTCTAACCTGTTGCGT (site AAATGACCTAC)	2.66	
AAATGACCTTGGGTTCTAACCTGTTGCGT (site GTGCCCGCTCT)	0.548	
AAATTGACTTGGGTTCTAACCTGTTGCCT (site AAATTGACTAG)	0.624	
AAATTGACTTGGGTTCTAACCTGTTGCCT (site AACTTGACTAG)	0.136	
AAATTGACTTGGGTTCTAACCTGTTGCCT (site AAGTTGACTAG)	0.0999	
AAATTGACTTGGGTTCTAACCTGTTGCCT (site AATTTGACTAG)	0.0913	
AAATTTCCTTGGGTTCTAACCTGTTGCCT (site AAATTTCCTAG)	0.42	
AAATTTCCTTGGGTTCTAACCTGTTGCCT (site ACATTTCCTAG)	0.0879	
AAATTTCCTTGGGTTCTAACCTGTTGCCT (site AGATTTCCTAG)	0.0553	
AAATTTCCTTGGGTTCTAACCTGTTGCCT (site ATATTTCCTAG)	0.123	
AACACGTCTTGGGTTCTAACCTGTTGCCT (site AAATCGTCTAG)	0.0544	
AACACGTCTTGGGTTCTAACCTGTTGCCT (site AACACGTCTAG)	0.576	
AACACTCCTTGGGTTCTAACCTGTTGCTT (site AACACTCCTAA)	0.0689	
AACACTCCTTGGGTTCTAACCTGTTGCTT (site AAGACTCCTAA)	0.299	

Sequence	recombinant barcode read abundance (log10) [1]	recombinant UMI read abundance (log10) [2]
AACAGTTCTTGGGTTCTAACCTGTTGCCT (site AACAGCTCTAG)	0.151	
AACAGTTCTTGGGTTCTAACCTGTTGCCT (site AACAGTTCTAG)	0.749	
AACCGCCCTTGGGTTCTAACCTGTTGCGT (site AACCGCCCTAC)	2.47	
AACCGCCCTTGGGTTCTAACCTGTTGCGT (site AACCGCCCTAG)	0.434	
AACCTAGCTTGGGTTCTAACCTGTTGCTA (site AACCTAGCTTA)	0.395	
AACCTAGCTTGGGTTCTAACCTGTTGCTA (site ACCCTAGCTGA)	0.0657	
AACGCTTCTTGGGTTCTAACCTGTTGCCT (site AACGCTTCTAG)	0.3	
AACGCTTCTTGGGTTCTAACCTGTTGCCT (site ACCGCTTCTAG)	0.215	
AACGCTTCTTGGGTTCTAACCTGTTGCCT (site AGCGCTTCTAG)	0.0496	
AACGCTTCTTGGGTTCTAACCTGTTGCCT (site ATCGCTTCTAG)	0.0246	
AACGTACCTTGGGTTCTAACCTGTTGCCA (site AACGTACCTTG)	0.674	
AACGTACCTTGGGTTCTAACCTGTTGCCA (site GGTAATACTAT)	0.0669	
AACTCTCCTTGGGTTCTAACCTGTTGCAT (site AACTATCCTAT)	0.11	
AACTCTCCTTGGGTTCTAACCTGTTGCAT (site AACTCTCCTAT)	0.588	
AACTCTCCTTGGGTTCTAACCTGTTGCAT (site AACTGTCCTAT)	0.188	
AACTCTCCTTGGGTTCTAACCTGTTGCAT (site AACTTTCCTAT)	0.0336	
AACTGATCTTGGGTTCTAACCTGTTGCCT (site AACTAATCTAG)	0.0976	
AACTGATCTTGGGTTCTAACCTGTTGCCT (site AACTCATCTAG)	0.0693	
AACTGATCTTGGGTTCTAACCTGTTGCCT (site AACTGATCTAG)	0.397	
AACTGATCTTGGGTTCTAACCTGTTGCCT (site AACTTATCTAG)	0.038	
AACTGGGCTTGGGTTCTAACCTGTTGCCT (site AACTGGGCTAG)	0.252	
AACTGGGCTTGGGTTCTAACCTGTTGCCT (site ACCTGGGCTAG)	0.149	

Sequence	recombinant barcode read abundance (log10) [1]	recombinant UMI read abundance (log10) [2]
AACTGGGCTTGGGTTCTAACCTGTTGCCT (site AGCTGGGCTAG)	0.0923	
AACTGGGCTTGGGTTCTAACCTGTTGCCT (site ATCTGGGCTAG)	0.141	
AACTGTCCTTGGGTTCTAACCTGTTGCAT (site AACTATCCTAT)	0.106	
AACTGTCCTTGGGTTCTAACCTGTTGCAT (site AACTCTCCTAT)	0.0428	
AACTGTCCTTGGGTTCTAACCTGTTGCAT (site AACTGTCCTAT)	0.805	
AACTGTCCTTGGGTTCTAACCTGTTGCAT (site AACTTTCCTAT)	0.106	
TTTGCGGCATGGACCGGTTTTCCCGGTAATCCGTATTTGTT (site TTTGCGGCTAA)		0.223
TTTGCGGCATGGACCGGTTTTCCCGGTAATCCGTATTTGTT (site TTTGCGGCTAC)		0.0157
TTTGCGGCATGGACCGGTTTTCCCGGTAATCCGTATTTGTT (site TTTGCGGCTAG)		0.0139
TTTGCGGCATGGACCGGTTTTCCCGGTAATCCGTATTTGTT (site TTTGCGGCTAT)		0.00523
TTTGCTTCATGGACCGGTTTTCCCGGTAATCCGTATTTGGT (site TTTGCTTCTAC)		0.00326
TTTGTTCCATGGACCGGTTTTCCCGGTAATCCGTATTTGTG (site TTTGTTCCTCA)		0.0191
TTTTCCCCATGGACCGGTTTTCCCGGTAATCCGTATTTGTA (site TATTCCCCTTA)		0.00331
TTTTCCCCATGGACCGGTTTTCCCGGTAATCCGTATTTGTA (site TCTTCCCCTTA)		0.00391
TTTTCCCCATGGACCGGTTTTCCCGGTAATCCGTATTTGTA (site TGTTCCCCTTA)		0.0253
TTTTCCCCATGGACCGGTTTTCCCGGTAATCCGTATTTGTA (site TTTTCCCCTTA)		0.0384
TTTTCGGCATGGACCGGTTTTCCCGGTAATCCGTATTTGCT (site TTTACGGCTAG)		0.0102
TTTTCGGCATGGACCGGTTTTCCCGGTAATCCGTATTTGCT (site TTTCCGGCTAG)		0.302
TTTTCGGCATGGACCGGTTTTCCCGGTAATCCGTATTTGCT (site TTTGCGGCTAG)		0.00223
TTTTCGGCATGGACCGGTTTTCCCGGTAATCCGTATTTGCT (site TTTTCGGCTAG)		0.0145
